Data as given in patent US20250213547A1, “METHODS OF TREATING NEUROLOGICAL DISEASES” (priority 2022, published 2025).

How the values were obtained:
CH24H = biological target: T1, CH24H (Homo sapiens, UniProt Q9Y6A2); assay: PK/PD (PK/OE/24HC) turnover modeling; settings: turnover model estimate
T1 construct: from tissue; host or cells: brain of living human trial subjects (in vivo)
Text: Similar to the PK model, the PK/PD model was developed as a population mixed-effects model and incorporated the individual PK parameters from the final PK population model. A turnover model was used to characterize changes in plasma 24HC overtime. Plasma 24HC was considered to be at steady-state baseline (BL) before the start of treatment. […] PK/PD covariates were screened in a procedure similar to the PK covariates. In the final PK/PD model, two covariates, A1-AGLP and body weight affected baseline 24HC.
The PK/PD analysis dataset consisted of 2165 24HC observations from 3 phase I trials. Four subjects from the ELEKTRA study with large IC50 estimates were excluded from the dataset. Additionally, 42 individuals with large conditional weighted residuals were excluded from the dataset. The final dataset contained 2107 24HC observations from 248 subjects. Table 26 summarizes the modeling dataset with reference to example numbers, respective clinical trial ID, subject numbers, regimen, and number of observations and doses. Tables 27 and 28 summarize the categorical covariates used in PK/OE/24HC analysis from the entire dataset and the ELEKTRA study subset, respectively.
Tables 29 and 30 summarize the mean continuous variables used in the PK/OE/24HC covariate analysis from the entire PK/OE/24HC population studied and the ELEKTRA subset, respectively. In addition to the shared variables, the PK/PD dataset contained the individual final estimates of the population PK model parameters (IND_ALAG1, IND_KA, IND_CL, IND_V2, IND_Q, IND_V3, and IND_F1). Subjects without individual PK parameter estimates (e.g. subjects from the placebo arms) were assigned to the respective geometric mean of the estimated individual parameter values.
A turnover model was used to describe changes in 24HC concentration over time. […] The following formula estimates change in 24HC: […]
The indirect exposure effect (EFF) was estimated by an Imax model:
The effect-site concentration was implemented as a delayed equilibrium with the plasma/brain transit rate parameter (KPLBR):
The scaling parameter KPLBR was previously estimated in a competitive enzyme occupancy model derived from PET brain imaging data (NCT02497235, Table 19). Parameters derived from this base model were fixed at their previous final PK population estimates derived from example 12. However, no random effects could be estimated without enzyme occupancy data. FIG. 26 depicts the basic model structure in relation to observed and unobserved data. There was a strong growth-related increase in baseline 24HC levels, which was only observed in young subjects.
The following variables were screened by forward inclusion, backward exclusion F-tests: • Growth/maturity: Weight, BMI, and age • Protein binding: Albumin (ALB), A1-AGLP • Liver function: AST, ALT, GGT, and ALP • Kidney function: Creatinine clearance (CRCL), eGFR • Categorical variables: Asian, sex. Ethnicity, and disease type

[1] = Relative stability of crystalline polymorphs; type: physicochemical; settings: Form II compared with Form I

T1 sequence (Q9Y6A2 whole entry): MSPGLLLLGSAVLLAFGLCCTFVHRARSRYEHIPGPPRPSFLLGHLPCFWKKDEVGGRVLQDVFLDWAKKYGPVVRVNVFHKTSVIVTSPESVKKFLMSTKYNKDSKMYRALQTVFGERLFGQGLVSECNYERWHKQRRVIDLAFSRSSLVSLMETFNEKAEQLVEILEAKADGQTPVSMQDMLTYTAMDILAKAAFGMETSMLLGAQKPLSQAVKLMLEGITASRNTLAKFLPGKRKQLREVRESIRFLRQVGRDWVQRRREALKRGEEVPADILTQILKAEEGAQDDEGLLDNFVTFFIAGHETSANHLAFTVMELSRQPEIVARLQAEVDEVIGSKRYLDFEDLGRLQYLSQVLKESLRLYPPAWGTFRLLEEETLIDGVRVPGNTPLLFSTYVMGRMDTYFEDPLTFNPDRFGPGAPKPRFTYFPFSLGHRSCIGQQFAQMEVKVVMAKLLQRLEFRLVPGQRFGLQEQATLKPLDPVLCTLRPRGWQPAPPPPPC

CC(C)C(O)CC[C@@H](C)[C@H]1CC[C@H]2[C@@H]3CC=C4C[C@@H](O)CC[C@]4(C)[C@H]3CC[C@]12C (stereo partly drawn) [24HC, 24-hydroxycholesterol]
24HC elimination rate (KOUT) (CH24H): 0.02 ng/mL/h | 24HC synthesis rate (KIN) (CH24H): 1.09 h⁻¹

O=C(c1cccnc1-c1ccncc1)N1CCC(O)(Cc2ccccc2)CC1 [Form II, (4-benzyl-4-hydroxypiperidin-1-yl) (2,4′-bipyridin-3-yl) methanone]
polymorph stability [1]: more stable than Form I
